Data published in ChEMBL document CHEMBL1143737, “Synthesis and biological evaluation of conformationally constrained analogues of the antitubercular agent ethambutol” (2007).
Converted amounts (≈) assume the structure as drawn.

System: Mycobacterium tuberculosis
Test: Antimycobacterial activity against Mycobacterium tuberculosis H37Rv after 6 days by colorimetric microassay
Format: functional
Settings: 144 h

CC[C@@H](CO)NCCN[C@@H](CC)CO [ETHAMBUTOL]
MIC: 2 µg/mL (≈ 9.79 µM)
